In US20140135526A1, “COMPOSITIONS AND METHODS FOR 3-HYDROXYPROPIONATE BIO-PRODUCTION FROM BIOMASS” (OPX Biotechnologies, Inc., priority 2007, published 2014):

What was measured:
E. coli = assay: Alleviation of 3-HP toxicity by adding downstream products of the chorismate superpathway; assay type: cell-based; details: added as supplement in the presence of 3-HP
Text: The data shown in FIG. 4 depict identification of the chorismate superpathway as a target of 3-HP toxicity. In some embodiments, toxicity is alleviated by several processes.

wild type E. coli K12 = assay: 3-HP toxicity (growth inhibition) in E. coli; assay type: cell-based
Text: Previous attempts to produce 3-HP via biological pathways provide product titers which have been low and these processes have required the use of expensive, rich media. Both of these factors limit commercial feasibility and profitability. The use of rich media was necessary due to the toxicity of 3-HP when fermented with the more economical minimal media. […] Further, the fermentative pathways reported by other investigators have not addressed and resolved the toxicity mechanisms of 3-HP to the host organisms. Further to issues related to commodity chemical production, which largely relies on petroleum-based starting materials, there is an increasing need to reduce the domestic usage of petroleum and natural gas. The numerous motivating factors for this increasing need include, but are not limited to: pollutant reduction (such as greenhouse gases), environmental protection, and reducing the dependence on foreign oil. These issues not only impact fuel markets, but also the markets of numerous other products that are currently derived from oil. Biorefining promises the development of efficient biological processes allowing for the conversion of renewable sources of carbon and energy into large volume commodity chemicals.
FIG. 2 depicts 3-hydroxpropionate toxicity in E. coli K12. The minimum concentration of 3-HP that is required to inhibit visible growth after 24 hrs in minimal media is shown for wild type E. coli K12 grown in both minimal media and rich media which contains more complex nutrients.
Severe growth inhibition has been observed for extracellular 3-HP levels as low as 10 g/L in minimal media (pH 7.0), which limits the economic feasibility of 3-HP production as a platform chemical. […] However toxicity at levels below required titers (100 g/L) are still observed in rich media.

[1] = tested on: AB354 (ΔpanD) + pKK223-kgd; assay type: cell-based, E. coli; details: M9 minimal media plates with threonine, leucine, thiamine; 37 C overnight; 10 g/L beta-alanine, 1 mM IPTG, 0.2 g/L putrescine, 200 mg/L ampicillin where indicated
Description: (§1) E. coli AB354 (Δ panD) was transformed with the vector controls, pKK223, pKK223-Cterm-5×his (‘5×His’ disclosed as SEQ ID NO: 24), as well as the test vectors pKK223-mcr and pKK223-Cterm-5×His-kgd (‘5×His’ disclosed as SEQ ID NO: 24), according to standard methods described below. Each of the strains were grown overnight in LB rich media supplemented with 200 mg/L ampicillin (according to standard protocols). Following overnight growth, cells twice were harvested by centrifugation and washed by resuspension in M9 minimal media (standard protocol), diluted 1:10,000 and plated on M9 minimal media plates with 0.05 g/L threonine, 0.1 g/L leucine, 0.067 g/L thiamine, with the additional appropriate supplements, where indicated at the following concentrations (10 g/L beta-alanine (Sigma Aldrich, St. Louis, Mo.), 1 mM Isopropyl β-D-1-thiogalactopyranoside (Thermo Fisher Scientific, Fairlawn, N.J.), 0.2 g/L putrescine (MPBiomedicals, Santa Ana, Calif.), 200 mg/L ampicillin (Research Products International Corp., Mt. Prospect, Ill.) After plating, agarose plates were incubated at 37 C overnight by standard methods. […] A plus (+) indicates growth on a plate, minus (−) indicates no growth. […] Putrescine is known to induce the expression of gamma-aminobutyrate transaminase in E. coli. This enzyme has been shown in some species including Rattus norvegicus to also have beta-alanine aminotransferase activity.

AB354 (ΔpanD) + pKK223 = assay type: cell-based, E. coli; details: M9 minimal media plates with threonine, leucine, thiamine; 37 C overnight; 10 g/L beta-alanine, 1 mM IPTG, 0.2 g/L putrescine, 200 mg/L ampicillin where indicated
Description: as §1

[2] = tested on: AB354 (ΔpanD) + pKK223-mer; assay type: cell-based, E. coli; details: M9 minimal media plates with threonine, leucine, thiamine; 37 C overnight; 10 g/L beta-alanine, 1 mM IPTG, 0.2 g/L putrescine, 200 mg/L ampicillin where indicated
Description: as §1

K12 = assay type: cell-based, E. coli; details: M9 minimal media plates with threonine, leucine, thiamine; 37 C overnight; 10 g/L beta-alanine, 1 mM IPTG, 0.2 g/L putrescine, 200 mg/L ampicillin where indicated
Description: as §1

AB354 (ΔpanD) = assay type: cell-based, E. coli; details: M9 minimal media plates with threonine, leucine, thiamine; 37 C overnight; 10 g/L beta-alanine, 1 mM IPTG, 0.2 g/L putrescine, 200 mg/L ampicillin where indicated
Description: as §1

`O=C(O)c1cccc(O)c1O` [2,3-dihydroxybenzoate] was tested, and the “effect of addition on 3-HP toxicity” value (E. coli) was “alleviate toxicity to a degree”.
With `O=C(O)CCO` [3-HP, 3-hydroxypropionate] the “extracellular 3-HP level at which severe growth inhibition is observed” value (wild type E. coli K12; minimal media (pH 7.0)) was ≥ 10 g/L, the “3-HP level at which toxicity is still observed” value (wild type E. coli K12; rich media) was < 100 g/L and the “product titer at which toxic effects are observed, relative to desired titers” value (wild type E. coli K12; rich media) was “approximately two times lower than desired titers”. For the same compound, the “3-HP level at which metabolic activity is significantly inhibited, relative to the approximate 100 g/L titer” value (wild type E. coli K12; wild type E. coli, minimal media) was 5-10 times lower.
For `CC1(C)S[C@@H]2[C@H](NC(=O)[C@H](N)c3ccccc3)C(=O)N2[C@H]1C(=O)O` [Amp, ampicillin], the “growth on plate, strain AB354 (ΔpanD) + pKK223-kgd” value [1] was “−”, the “growth on plate, strain AB354 (ΔpanD) + pKK223” value (AB354 (ΔpanD) + pKK223) was “−” and the “growth on plate, strain AB354 (ΔpanD) + pKK223-mer” value [2] was “−”. The “growth on plate, strain K12” value (K12) was “−” and the “growth on plate, strain AB354 (ΔpanD)” value (AB354 (ΔpanD)) was “−”.
For `Nc1ccc(C(=O)O)cc1` [para-aminobenzoate], the “effect of addition on 3-HP toxicity” value (E. coli) was “alleviate toxicity to a degree”.
With `O=C(O)c1ccc(O)cc1` [para-hydroxy-benzoate] the “effect of addition on 3-HP toxicity” value (E. coli) was “alleviate toxicity to a degree”.
`N[C@@H](Cc1ccccc1)C(=O)O` [phenylalanine] was tested, and the “effect of addition on 3-HP toxicity” value (E. coli) was “alleviate toxicity to a degree”.
In the case of `N[C@@H](Cc1ccc(O)cc1)C(=O)O` [tyrosine], the “effect of addition on 3-HP toxicity” value (E. coli) was “alleviate toxicity to a degree”.
In the case of `NCCC(=O)O` [β-alanine, beta-alanine], the “growth on plate, strain AB354 (ΔpanD) + pKK223-kgd” value [1] was “+”, the “growth on plate, strain AB354 (ΔpanD) + pKK223” value (AB354 (ΔpanD) + pKK223) was “+” and the “growth on plate, strain AB354 (ΔpanD) + pKK223-mer” value [2] was “+”. The “growth on plate, strain K12” value (K12) was “+” and the “growth on plate, strain AB354 (ΔpanD)” value (AB354 (ΔpanD)) was “+”.
